In patent US20210283087A1, “METHOD FOR TREATING AND RELIEVING MYOPIA” (China Medical University, priority 2014, published 2021):

Columns and labels:
[1] = system: sclera or retina of guinea pig MFD eye; assay: Immunohistochemistry of guinea pig MFD eyes; assay type: in vivo
Method: Eyes were collected from atropine-treated and control animals, embedded in paraffin, and cut at a thickness of 20 μm; subsequently, the sections were placed on glass slides. Antigen retrieval was performed by boiling the slides in citrate buffer (pH 6.0); the sections were then stained with antibodies against IL-6, TNF-α, TGF-β, MMP2, c-Fos, NF-κB, and CHRM1 and 3. The EnVision System peroxidase kit (DAKO, Carpentaria, Calif., USA) was used to visualize immunoreactivity.
We observed a similar increase in inflammatory response in hamsters as we did in a guinea pig model of MFD.

[2] = system: ARPE-19 human retinal pigment epithelial cells; assay: Western blot of LPS-induced signaling in ARPE-19 cells (atropine); assay type: cell-based; settings: LPS + 100 μM atropine
Method: ARPE-19 human retinal pigment epithelial cells were obtained from the Bioresource Collection and Research Center, HsinChu, Taiwan (BCRC; BCRC-60383). Cells were cultured in DMEM with 10% FBS at 37° C. and 5% CO2, with medium replacement every 3 to 4 days. […] After treatment, 30 μg of total cell lysates was subjected to sodium dodecyl sulfate polyacrylamide gel electrophoresis (SDS-PAGE), followed by immunoblot analysis. Primary antibodies used included ERK (Thr202/Tyr204), AKT (Ser473), PI3K (p85[Tyr458]/p55[Tyr199]), NF-κB (p65, Ser536), and c-Fos (Ser32; Cell Signaling, Beverly, Mass., USA). Antirabbit or antimouse secondary antibody conjugated with horseradish peroxidase was also used. Immunoreactive protein bands were detected using an enhanced chemiluminescence kit (ECL, Pierce, Thermo Fisher Scientific, Pittsburgh, Pa., USA). Equal loading was confirmed through probing the blots with β-actin antibody (Abcam, Cambridge, Mass., USA) as well as anti-ERK, AKT, PI3K, NF-κB, and c-Fos.

SMILES: CN1[C@@H]2CC[C@H]1C[C@@H](OC(=O)C(CO)c1ccccc1)C2 (some centres unmarked) [Atropine, atropine]
- MFD downregulation of IL-10 level ([1]; atropine): suppressed
- COL1 expression in sclera or retina of the MFD eye ([1]; atropine compared to PBS): increased
- MMP2, TGF-β, and c-Fos expression in sclera or retina of the MFD eye ([1]; atropine compared to PBS): reduced
- Activation of ERK through LPS and downstream c-FOS [2]: inhibited
- LPS activation of PI3K, AKT, and NF-κB [2]: inhibited
